From paper PMC6940912, “Novel Drug-Like Somatostatin Receptor 4 Agonists are Potential Analgesics for Neuropathic Pain” (International Journal of Molecular Sciences, 2019)

What was measured:
[1] = target: T1, sst4 receptor (Homo sapiens, UniProt P31391); assay: sst4 receptor-linked G-protein activation, [35S]GTPγS binding assay on membranes of sst4-expressing CHO cells; assay type: biochemical; conditions: for EC50: 1 nM to 10 µM, n = 3; for Emax: [35S]GTPγS binding, mean ± SEM, n = 3, read-out: Maximal activation over the basal activity of the receptor (efficacy)
T1 construct: expressed in transfected cells; host or cells: CHO cells
Method: Membrane fractions were prepared from CHO cells, which express the sst4 receptor, in Tris–ethylene glycol-bis(2-aminoethyl)tetraacetic acid (Tris–EGTA) buffer (50 mM Tris–HCl (Sigma, St. Louis, MO, USA), 1 mM EGTA (Sigma, St. Louis, MO, USA), 3 mM MgCl2 (Sigma, St. Louis, MO, USA), 100 mM NaCl (Sigma, St. Louis, MO, USA), pH 7.4, 10 μg of protein/sample). The fractions were incubated in the buffer containing 0.05 nM guanosine triphosphate (GTP) (BioChemica International Inc., Melbourne, Florida, USA), labeled on the gamma phosphate group with ^35S ([^35S]GTPγS) (Isotop Institute, Budapest, Hungary) and increasing concentrations (1 nM to 10 µM) of C1, C2, C3 and C4 compounds for 60 min at 30 °C, in the presence of 30 μM guanosine diphosphate (GDP) (Sigma, St. Louis, MO, USA). We determined the nonspecific binding in the presence of 10 μM unlabeled GTPγS and total binding in the absence of test compounds. Samples were filtrated through Whatman GF/B glass fiber filters using 48-well Slot Blot Manifold from Cleaver Scientific (Cleaver Scientific Ltd., Rugby, Warwickshire, United Kingdom). Filters were washed with ice-cold 50 mM Tris–HCl buffer (pH 7.4) and radioactivity was measured in a β-counter (PerkinElmer Inc., Waltham, MA, USA). The test-compound-induced G-protein activation was given as percentage over the specific [^35S]GTPγS binding detected in the absence of agonists.
(§1) In the sst4 receptor activation assay, all the compounds were dissolved in dimethyl sulfoxide (DMSO) (Szkarabeusz Ltd., Pécs, Hungary). The concentration of the stock solutions was 10 mM and was diluted with distilled water to reach the final concentrations. For the in vivo experiments, 1 mg of the compounds was rubbed dry in a braying mortar, suspended thoroughly in 1 mL 1.25% methylcellulose (MC) (Pharmacy of University of Pécs, Pécs, Hungary) solution and then dissolved in sterile bidistilled water to get a 1000 µg/mL stock solution freshly every experimental day. Most microsuspensions looked opalescent; they were shaken properly, sonicated, and further diluted with 1.25% MC to obtain the 25 µg/mL solution for oral administrations (0.2 mL/10 g body weight for the 500 µg/kg dose). The solutions were shaken and sonicated again directly before use. The vehicle was always 1.25% MC dissolved in sterile bidistilled water.

[2] = test system: Male NMRI mice; assay: RTX-induced acute neurogenic inflammatory thermal allodynia and mechanical hyperalgesia; assay type: in vivo, mouse; conditions: oral pretreatment 1 h before intraplantar RTX, printed dose 500 µg/kg
Method: The investigated compounds (500 µg/kg p.o.) or the vehicle were administered orally 1 h before the induction of the acute neurogenic inflammation by intraplantar RTX (Sigma, St. Louis, MO, USA) injection (20 µL, 0.1 µg/mL) into the right hindpaw. RTX evokes an acute neurogenic inflammatory reaction with the development of a rapid thermal allodynia, mainly due to peripheral sensitization mechanisms, and a later developing mechanical hyperalgesia due also to central sensitization. The nociceptive heat threshold was determined before (control) and 10, 20 and 30 min after RTX administration with an increasing-temperature hot plate (IITC Life Science, Woodland Hills, CA, USA). […] The mechanonociceptive threshold was measured with an electronic von Frey device (dynamic plantar aesthesiometer (DPA), Ugo Basile, Comerio, Italy) prior to RTX injection and 30, 60 and 90 min afterwards. The measurement at 30 min was performed immediately after the last heat threshold measurement. The experiment consisted of two separate series on consecutive days and the number of animals in the control group was six per day. Therefore, the control group contained 12 mice, and six and five mice were used in the C1- and C2-treated groups, respectively.
as §1
Male NMRI mice (8–12 weeks old) bred in the Laboratory Animal House of the Department of Pharmacology and Pharmacotherapy of the University of Pecs were kept in standard plastic cages at 24–25 °C, under a 12–12 h light–dark cycle and provided with standard rodent chow and water ad libitum. […]

[3] = test system: Male NMRI mice; assay: Partial sciatic nerve ligation-induced chronic traumatic neuropathic mechanical hyperalgesia; assay type: in vivo, mouse
Method: After conditioning and two control mechanonociceptive measurements on 2 consecutive days, mice were anaesthetized by the combination of ketamine (100 mg/kg, i.p.) and xylazine (10 mg/kg, i.p.). Traumatic mononeuropathy was achieved by one-third to one-half part ligation of the right sciatic nerve. Significant decrease in the mechanical threshold develops 7 days after operation. The mechanonociceptive threshold of the plantar surface of the hindpaws was measured by DPA on the 7th postoperative day. The paw withdrawal threshold was obtained in grams (the maximal value was 10 g; ramp time of 4 s). The compounds (500 µg/kg) or the vehicle were administered orally on day 7, one hour before the repeated measurement. The experiment consisted of separate series on 3 consecutive days, and there were 2–3 vehicle-treated control animals in every series. Therefore, each group contained 8 mice.
as §1
Male NMRI mice (8–12 weeks old) bred in the Laboratory Animal House of the Department of Pharmacology and Pharmacotherapy of the University of Pecs were kept in standard plastic cages at 24–25 °C, under a 12–12 h light–dark cycle and provided with standard rodent chow and water ad libitum. All experimental procedures complied with the recommendations of the 1998/XXVIII Act of the Hungarian Parliament on Animal Protection and Consideration Decree of Scientific Procedures of Animal Experiments (63/2010) and were approved by the Ethics Committee on Animal Research of Pecs University according to the Ethical Codex of Animal Experiments; license was given (license No. BA1/35/55-50/2017). We made all efforts to minimize the number and suffering of the animals used in this study.

[4] = day 7 after sciatic nerve ligation, 500 µg/kg oral, 1 h later, n = 8
[5] = day 7 after sciatic nerve ligation, pretreatment self-control, n = 8

T1 sequence (P31391 whole entry): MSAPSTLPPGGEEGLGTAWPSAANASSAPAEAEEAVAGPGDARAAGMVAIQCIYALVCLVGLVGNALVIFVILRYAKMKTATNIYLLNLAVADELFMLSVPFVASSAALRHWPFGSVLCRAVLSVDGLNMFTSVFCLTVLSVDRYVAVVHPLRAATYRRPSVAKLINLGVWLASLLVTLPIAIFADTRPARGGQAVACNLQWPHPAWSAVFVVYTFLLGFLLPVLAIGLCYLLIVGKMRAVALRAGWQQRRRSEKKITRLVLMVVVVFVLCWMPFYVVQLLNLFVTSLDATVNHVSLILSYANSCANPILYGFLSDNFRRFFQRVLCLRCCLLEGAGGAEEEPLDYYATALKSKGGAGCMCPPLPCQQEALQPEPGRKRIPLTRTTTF

SMILES: COc1ccc(CNc2ncnc3c2c(C)c(C)n3Cc2ccccc2)cc1 [Compound 4, 4-Methoxy-benzyl-[7-benzyl-5,6-dimethyl-7H-pyrrolo[2,3-d]pyrimidin-4-yl]-amine]
- EC50 [1]: 70 nM
- Emax [1]: 177%

SMILES: COc1ccc(CCNc2ncnc3c2c(C)c(C)n3Cc2ccccc2)cc1 [Compound 2, (7-Benzyl-5,6-dimethyl-7H-pyrrolo[2,3-d]pyrimidin-4-yl)-[2-(4-methoxy-phenyl)-ethyl]-amine]
- EC50 [1]: 66 nM
- Emax [1]: 203%
- Effect on acute neurogenic inflammatory heat hyperalgesia ([2]; at 10 and 30 min): not
- Effect on RTX-induced mechanical hyperalgesia ([2]; at 30 min): not
- Mechanonociceptive threshold of operated limb, 1 h after treatment [3, 4]: 8.04 ± 0.31 g
- Neuropathic mechanical hyperalgesia, 1 h after treatment [3, 4]: 15.70% ± 2.84
- Mechanonociceptive threshold of operated limb, before treatment [3, 5]: 6.53 ± 0.30 g
- Neuropathic mechanical hyperalgesia, before treatment [3, 5]: 31.39% ± 3.39
- Anti-hyperalgesic effect on neuropathic mechanical hyperalgesia ([3]; traumatic nerve injury, single oral 500 µg/kg): 50%
